Experimental data published in ChEMBL document CHEMBL3885881, “DrugMatrix”.

Organism: Rattus norvegicus
Experiment: DrugMatrix - Regimen: Daily Repeat
Assay type: toxicity, organism-based, Sprague-Dawley
Design: regimen Daily Repeat, gender Male, age 6-8 weeks
Settings: in vivo, po, route oral GAVAGE, vehicle .5 % CMC; for ABSOLUTE BASOPHIL / ABSOLUTE EOSINOPHIL / ABSOLUTE LYMPHOCYTE / ABSOLUTE MONOCYTE / ABSOLUTE SEGMENTED NEUTROPHIL / BASOPHIL / EOSINOPHIL / ERYTHROCYTE COUNT / HEMATOCRIT / HEMOGLOBIN / LEUKOCYTE COUNT / LYMPHOCYTE / MEAN CORPUSCULAR HEMOGLOBIN / MEAN CORPUSCULAR HEMOGLOBIN CONCENTRATION / MEAN CORPUSCULAR VOLUME / MONOCYTE / NEUTROPHIL / NUCLEATED RED BLOOD CELLS / PLATELET COUNT: tissue Blood; for ALANINE AMINOTRANSFERASE / ALBUMIN / ALKALINE PHOSPHATASE / ASPARTATE AMINOTRANSFERASE / BLOOD UREA NITROGEN / CARBON DIOXIDE / CHLORIDE / CHOLESTEROL / CREATINE PHOSPHOKINASE / CREATININE / GLUCOSE / LACTATE DEHYDROGENASE / LIPASE / PHOSPHORUS / POTASSIUM / SODIUM / TOTAL BILIRUBIN / TOTAL PROTEIN / URIC ACID: tissue Plasma
[1] = 0 mg/kg, 72 h, dose level Control, time 3 day
[2] = 0 mg/kg, 120 h, dose level Control, time 5 day
[3] = 250 mg/kg, 72 h, dose level High, time 3 day

C#C[C@]1(O)CC[C@H]2[C@@H]3CCc4cc(OC)ccc4[C@H]3CC[C@@]21C [MESTRANOL]
ABSOLUTE BASOPHIL [1]: 0 CELLS/uL | ABSOLUTE EOSINOPHIL [1]: 0 CELLS/uL | ABSOLUTE LYMPHOCYTE [1]: 12269.67 CELLS/uL | ABSOLUTE MONOCYTE [1]: 160.33 CELLS/uL | ABSOLUTE SEGMENTED NEUTROPHIL [1]: 970 CELLS/uL | BASOPHIL [1]: 0% | EOSINOPHIL [1]: 0% | ERYTHROCYTE COUNT [1]: 5.76 x10E6/uL | HEMATOCRIT [1]: 36.57% | HEMOGLOBIN [1]: 14.22 G/DL | LEUKOCYTE COUNT [1]: 13.4 x10E3/uL | LYMPHOCYTE [1]: 91.67% | MEAN CORPUSCULAR HEMOGLOBIN [1]: 24.67 pg | MEAN CORPUSCULAR HEMOGLOBIN CONCENTRATION [1]: 38.85 G/DL | MEAN CORPUSCULAR VOLUME [1]: 63.52 fL | MONOCYTE [1]: 1.17% | NEUTROPHIL [1]: 7.17% | NUCLEATED RED BLOOD CELLS [1]: 0.33 /100WBC | PLATELET COUNT [1]: 1250.83 x10E3/uL | ALANINE AMINOTRANSFERASE [1]: 49.17 u/L | ALBUMIN [1]: 4.33 G/DL | ALKALINE PHOSPHATASE [1]: 378.5 u/L | ASPARTATE AMINOTRANSFERASE [1]: 82.17 u/L | BLOOD UREA NITROGEN [1]: 15 mg/dL | CARBON DIOXIDE [1]: 34.33 mmol/L | CHLORIDE [1]: 99.17 MEQ/L | CHOLESTEROL [1]: 71.17 mg/dL | CREATINE PHOSPHOKINASE [1]: 258.67 u/L | CREATININE [1]: 0.18 mg/dL | GLUCOSE [1]: 142.67 mg/dL | LACTATE DEHYDROGENASE [1]: 154.33 u/L | LIPASE [1]: 9 u/L | PHOSPHORUS [1]: 11.67 mg/dL | POTASSIUM [1]: 7.13 MEQ/L | SODIUM [1]: 142.22 MEQ/L | TOTAL BILIRUBIN [1]: 0.18 mg/dL | TOTAL PROTEIN [1]: 5.77 G/DL | URIC ACID [1]: 1.55 mg/dL | ABSOLUTE BASOPHIL [2]: 0 CELLS/uL | ABSOLUTE EOSINOPHIL [2]: 23.33 CELLS/uL | ABSOLUTE LYMPHOCYTE [2]: 14943.67 CELLS/uL | ABSOLUTE MONOCYTE [2]: 32 CELLS/uL | ABSOLUTE SEGMENTED NEUTROPHIL [2]: 1084.33 CELLS/uL | BASOPHIL [2]: 0% | EOSINOPHIL [2]: 0.17% | ERYTHROCYTE COUNT [2]: 5.71 x10E6/uL | HEMATOCRIT [2]: 35.28% | HEMOGLOBIN [2]: 14.27 G/DL | LEUKOCYTE COUNT [2]: 16.08 x10E3/uL | LYMPHOCYTE [2]: 93% | MEAN CORPUSCULAR HEMOGLOBIN [2]: 25.02 pg | MEAN CORPUSCULAR HEMOGLOBIN CONCENTRATION [2]: 40.43 G/DL | MEAN CORPUSCULAR VOLUME [2]: 61.82 fL | MONOCYTE [2]: 0.17% | NEUTROPHIL [2]: 6.67% | NUCLEATED RED BLOOD CELLS [2]: 0.33 /100WBC | PLATELET COUNT [2]: 1274 x10E3/uL | ALANINE AMINOTRANSFERASE [2]: 54.17 u/L | ALBUMIN [2]: 4.22 G/DL | ALKALINE PHOSPHATASE [2]: 373.17 u/L | ASPARTATE AMINOTRANSFERASE [2]: 81.83 u/L | BLOOD UREA NITROGEN [2]: 16.67 mg/dL | CARBON DIOXIDE [2]: 30.33 mmol/L | CHLORIDE [2]: 99 MEQ/L | CHOLESTEROL [2]: 71 mg/dL | CREATINE PHOSPHOKINASE [2]: 273.5 u/L | CREATININE [2]: 0.22 mg/dL | GLUCOSE [2]: 141.83 mg/dL | LACTATE DEHYDROGENASE [2]: 153.67 u/L | LIPASE [2]: 10.33 u/L | PHOSPHORUS [2]: 11.38 mg/dL | POTASSIUM [2]: 7.08 MEQ/L | SODIUM [2]: 142.75 MEQ/L | TOTAL BILIRUBIN [2]: 0.18 mg/dL | TOTAL PROTEIN [2]: 6.1 G/DL | URIC ACID [2]: 1.67 mg/dL | ABSOLUTE BASOPHIL [3]: 0 CELLS/uL | ABSOLUTE EOSINOPHIL [3]: 55.33 CELLS/uL | ABSOLUTE LYMPHOCYTE [3]: 13434.33 CELLS/uL | ABSOLUTE MONOCYTE [3]: 105 CELLS/uL | ABSOLUTE SEGMENTED NEUTROPHIL [3]: 1338.67 CELLS/uL | BASOPHIL [3]: 0% | EOSINOPHIL [3]: 0.33% | ERYTHROCYTE COUNT [3]: 5.62 x10E6/uL | HEMATOCRIT [3]: 34.97% | HEMOGLOBIN [3]: 13.77 G/DL | LEUKOCYTE COUNT [3]: 14.93 x10E3/uL | LYMPHOCYTE [3]: 89.67% | MEAN CORPUSCULAR HEMOGLOBIN [3]: 24.5 pg | MEAN CORPUSCULAR HEMOGLOBIN CONCENTRATION [3]: 39.37 G/DL | MEAN CORPUSCULAR VOLUME [3]: 62.23 fL | MONOCYTE [3]: 0.67% | NEUTROPHIL [3]: 9.33% | NUCLEATED RED BLOOD CELLS [3]: 0 /100WBC | PLATELET COUNT [3]: 1230 x10E3/uL | ALANINE AMINOTRANSFERASE [3]: 46.67 u/L | ALBUMIN [3]: 4.03 G/DL | ALKALINE PHOSPHATASE [3]: 693.33 u/L | ASPARTATE AMINOTRANSFERASE [3]: 67.67 u/L | BLOOD UREA NITROGEN [3]: 10.33 mg/dL | CARBON DIOXIDE [3]: 32 mmol/L | CHLORIDE [3]: 102.67 MEQ/L | CHOLESTEROL [3]: 11.33 mg/dL | CREATINE PHOSPHOKINASE [3]: 168.67 u/L | CREATININE [3]: 0.16 mg/dL | GLUCOSE [3]: 157 mg/dL | LACTATE DEHYDROGENASE [3]: 250.33 u/L | LIPASE [3]: 7.33 u/L | PHOSPHORUS [3]: 11.57 mg/dL | POTASSIUM [3]: 6.36 MEQ/L | SODIUM [3]: 145.73 MEQ/L | TOTAL BILIRUBIN [3]: 0.23 mg/dL | TOTAL PROTEIN [3]: 5.73 G/DL
